# Measured values published in PubChem BioAssay (NCI).
#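 Exposure lasted 48 hours, with cells grown in 96-well plates and compounds tested at five concentrations. Abbreviation: GI50, concentration required for 50% inhibition of growth. TGI: concentration producing complete growth inhibition.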 *1 amine or outer side, *2 acyl side, *3 side chain or, on linkers, in order; H or OH if unused. Where a SMILES comes first, the peptide text is derived from it. Bridges are numbered along the chain shown (N, C = ends). [ ]: non-standard residue; d: D form. The star is where a group is joined. Phe(3,5-F2) = N[C@@H](Cc1cc(F)cc(F)c1)C(=O)O; Pro(4R-Me) = C[C@H]1CN[C@H](C(=O)O)C1; aThr = C[C@H](O)[C@H](N)C(=O)O; Pip = O=C(O)[C@@H]1CCCCN1; X10 = Fc1cc(C2CC2)ccc1N*; Abu = CC[C@H](N)C(=O)O; CO = O=C([*:1])[*:2]
# Assays:
# Test in all cases: inhibition of tumour cell growth, NCI panel, 48 h
# [1] = system: SK-MEL-5 melanoma
# [2] = system: OVCAR-3 ovarian
# [3] = system: NCI-H522 lung
# [4] = system: A549 NSCLC
# [5] = system: MOLT-4 leukemia
# [6] = system: SR leukemia
# [7] = system: DU-145 prostate
# [8] = system: MDA-MB-435
# [9] = system: SK-OV-3 ovarian
# [10] = system: LOX IMVI melanoma
# [11] = system: HCC-2998 colon
# [12] = system: HCT-116 colon
# [13] = system: M14 melanoma
# [14] = system: SK-MEL-2 melanoma
# [15] = system: UO-31 renal
# [16] = system: SF-539 CNS
# [17] = system: BT-549 breast
# [18] = system: SNB-19 CNS
# [19] = system: SN12C renal
# [20] = system: HS 578T breast
# [21] = system: EKVX NSCLC
# [22] = system: UACC-257 melanoma
# [23] = system: CCRF-CEM leukemia
# [24] = system: SF-268 CNS
# [25] = system: IGROV1 ovarian
# [26] = system: TK-10 renal
# [27] = system: OVCAR-8 ovarian
# [28] = system: HOP-62 NSCLC
# [29] = system: T-47D breast
# [30] = system: MDA-MB-231 breast
# [31] = system: MCF7 breast
# [32] = system: A498 renal
# [33] = system: SK-MEL-28 melanoma
# [34] = system: COLO 205 colon
# [35] = system: HCT-15 colon
# [36] = system: NCI-H226 lung
# [37] = system: NCI-H460 lung
# [38] = system: HT29 colon
# [39] = system: NCI-H23 lung
# [40] = system: MALME-3M melanoma
# [41] = system: CAKI-1 renal
# [42] = system: HL-60(TB) leukemia
# [43] = system: U251 CNS
# [44] = system: 786-0 renal
# [45] = system: UACC-62 melanoma
# [46] = system: RXF 393 renal
# [47] = system: PC-3 prostate
# [48] = system: KM12 colon
# [49] = system: RPMI-8226 leukemia
# [50] = system: SNB-75 CNS
# [51] = system: HOP-92 NSCLC
# [52] = system: SF-295 CNS
# [53] = system: NCI/ADR-RES ovarian
# [54] = system: SW-620 colon
# [55] = system: OVCAR-5 ovarian
# [56] = system: OVCAR-4 ovarian
# [57] = system: ACHN renal
# [58] = system: K-562 leukemia
smiles,measurement,setting,value
"CC[C@@H]1NC(=O)[C@@H]2CCCCN2C(=O)[C@@H]2CCCN2C(=O)[C@@H](NC(=O)[C@H](Cc2cc(F)cc(F)c2)NC(=O)Nc2ccc(C3CC3)cc2F)[C@H](C)OC(=O)[C@@H]2C[C@@H](C)CN2C1=O ({X10-CO}-[Phe(3,5-F2)][aThr]P[Pip][Abu][Pro(4R-Me)]; ester 2-C)",GI50,[1],0.0592 µM
same,TGI,[1],1.21 µM
same,GI50,[2],0.0463 µM
same,TGI,[2],2.03 µM
same,GI50,[3],0.056 µM
same,TGI,[3],8.48 µM
same,GI50,[4],0.0625 µM
same,TGI,[4],> 65 µM
same,GI50,[5],0.271 µM
same,TGI,[5],> 30 µM
same,GI50,[6],0.115 µM
same,TGI,[6],3.38 µM
same,GI50,[7],0.0593 µM
same,TGI,[7],> 100 µM
same,GI50,[8],0.049 µM
same,TGI,[8],1.72 µM
same,GI50,[9],0.0642 µM
same,TGI,[9],9.83 µM
same,GI50,[10],0.0748 µM
same,TGI,[10],4.38 µM
same,GI50,[11],0.0619 µM
same,TGI,[11],1.62 µM
same,GI50,[12],0.0427 µM
same,TGI,[12],1.61 µM
same,GI50,[13],0.0501 µM
same,TGI,[13],1.86 µM
same,GI50,[14],0.0902 µM
same,TGI,[14],2.57 µM
same,GI50,[15],0.326 µM
same,TGI,[15],9.47 µM
same,GI50,[16],0.137 µM
same,TGI,[16],2.46 µM
same,GI50,[17],0.0905 µM
same,GI50,[18],0.0443 µM
same,TGI,[18],> 56.5 µM
same,GI50,[19],0.0429 µM
same,TGI,[19],> 33.8 µM
same,GI50,[20],0.083 µM
same,TGI,[20],4.98 µM
same,GI50,[21],0.0767 µM
same,TGI,[21],> 100 µM
same,GI50,[22],0.0483 µM
same,TGI,[22],6.26 µM
same,GI50,[23],0.0603 µM
same,TGI,[23],> 100 µM
same,GI50,[24],0.0591 µM
same,TGI,[24],> 49.6 µM
same,GI50,[25],0.223 µM
same,TGI,[25],> 36.7 µM
same,GI50,[26],0.954 µM
same,TGI,[26],> 39.1 µM
same,GI50,[27],0.0427 µM
same,TGI,[27],> 100 µM
same,GI50,[28],0.0658 µM
same,TGI,[28],> 86.2 µM
same,GI50,[29],0.0627 µM
same,TGI,[29],8.16 µM
same,GI50,[30],0.0447 µM
same,TGI,[30],1.5 µM
same,GI50,[31],0.0437 µM
same,TGI,[31],14.9 µM
same,GI50,[32],0.032 µM
same,TGI,[32],1.06 µM
same,GI50,[33],0.178 µM
same,TGI,[33],2.42 µM
same,GI50,[34],0.0397 µM
same,TGI,[34],1.29 µM
same,GI50,[35],0.22 µM
same,TGI,[35],2.25 µM
same,GI50,[36],0.0632 µM
same,TGI,[36],2.57 µM
same,GI50,[37],0.0459 µM
same,TGI,[37],2.62 µM
same,GI50,[38],0.0709 µM
same,TGI,[38],5.49 µM
same,GI50,[39],0.0659 µM
same,TGI,[39],> 28.6 µM
same,GI50,[40],0.108 µM
same,TGI,[40],2.93 µM
same,GI50,[41],0.0547 µM
same,TGI,[41],7.25 µM
same,GI50,[42],0.0399 µM
same,TGI,[42],1.65 µM
same,GI50,[43],0.0524 µM
same,TGI,[43],> 56.6 µM
same,GI50,[44],0.205 µM
same,TGI,[44],15.8 µM
same,GI50,[45],0.0813 µM
same,TGI,[45],2.7 µM
same,GI50,[46],0.419 µM
same,TGI,[46],2.79 µM
same,GI50,[47],0.0396 µM
same,TGI,[47],13 µM
same,GI50,[48],0.258 µM
same,TGI,[48],3.86 µM
same,GI50,[49],0.0323 µM
same,TGI,[49],1.67 µM
same,GI50,[50],0.0667 µM
same,TGI,[50],6.19 µM
same,GI50,[51],0.0547 µM
same,TGI,[51],4.06 µM
same,GI50,[52],0.0552 µM
same,TGI,[52],1.54 µM
same,GI50,[53],0.505 µM
same,TGI,[53],> 38.1 µM
same,GI50,[54],0.0679 µM
same,TGI,[54],> 43.2 µM
same,GI50,[55],0.0679 µM
same,TGI,[55],2.63 µM
same,GI50,[56],0.0372 µM
same,TGI,[56],3.26 µM
same,GI50,[57],0.237 µM
same,TGI,[57],6.84 µM
same,GI50,[58],0.0391 µM
same,TGI,[58],> 100 µM
COc1cc(NC(=O)c2ccc(C(F)(F)F)nc2Nc2cc(Cl)ccc2C)cc(OC)c1OC,GI50,[1],1.75 µM
same,TGI,[1],12.3 µM
same,GI50,[2],6.47 µM
same,TGI,[2],34.1 µM
same,GI50,[3],2.93 µM
same,TGI,[3],18.2 µM
same,GI50,[4],6 µM
same,TGI,[4],45.7 µM
same,TGI,[5],0.823 µM
same,GI50,[6],0.215 µM
same,TGI,[6],1.57 µM
same,GI50,[7],12.6 µM
same,TGI,[7],39.6 µM
same,GI50,[8],4.94 µM
same,TGI,[8],34.2 µM
same,GI50,[9],7.69 µM
same,TGI,[9],29.6 µM
same,GI50,[10],7.06 µM
same,TGI,[10],20 µM
same,GI50,[11],0.985 µM
same,TGI,[11],15 µM
same,GI50,[12],2.93 µM
same,TGI,[12],14.1 µM
same,GI50,[13],4.64 µM
same,TGI,[13],20.8 µM
same,GI50,[14],8.16 µM
same,TGI,[14],28.6 µM
same,GI50,[15],3.48 µM
same,TGI,[15],16 µM
same,GI50,[16],9.89 µM
same,TGI,[16],50.8 µM
same,GI50,[17],6.56 µM
same,TGI,[17],21.4 µM
same,GI50,[18],10.4 µM
same,TGI,[18],30.5 µM
same,GI50,[19],7.76 µM
same,TGI,[19],24.2 µM
same,GI50,[20],3.9 µM
same,TGI,[20],19.4 µM
same,GI50,[21],4.54 µM
same,TGI,[21],37.6 µM
same,GI50,[22],4.55 µM
same,TGI,[22],19.7 µM
same,GI50,[23],0.452 µM
same,TGI,[23],22 µM
same,GI50,[24],6.63 µM
same,TGI,[24],27.8 µM
same,GI50,[25],0.852 µM
same,TGI,[25],20.2 µM
same,GI50,[26],15.8 µM
same,TGI,[26],> 67.9 µM
same,GI50,[27],10.8 µM
same,TGI,[27],> 80.1 µM
same,GI50,[28],5.1 µM
same,TGI,[28],16.6 µM
same,GI50,[29],3.99 µM
same,TGI,[29],27.1 µM
same,GI50,[30],2.94 µM
same,TGI,[30],14.3 µM
same,GI50,[31],3.78 µM
same,TGI,[31],27.4 µM
same,GI50,[32],4.14 µM
same,TGI,[32],18.2 µM
same,GI50,[33],8.74 µM
same,TGI,[33],27 µM
same,GI50,[34],7 µM
same,TGI,[34],20.6 µM
same,GI50,[35],4.35 µM
same,TGI,[35],19 µM
same,GI50,[36],11.2 µM
same,TGI,[36],32.8 µM
same,GI50,[37],6 µM
same,TGI,[37],21.3 µM
same,GI50,[38],8.12 µM
same,TGI,[38],22.9 µM
same,GI50,[39],3.06 µM
same,TGI,[39],27.8 µM
same,GI50,[40],9.84 µM
same,TGI,[40],47.7 µM
same,GI50,[41],4.88 µM
same,TGI,[41],41.8 µM
same,GI50,[42],0.194 µM
same,TGI,[42],7.8 µM
same,GI50,[43],4.27 µM
same,TGI,[43],16.9 µM
same,GI50,[44],4.72 µM
same,TGI,[44],21.4 µM
same,GI50,[45],2.53 µM
same,TGI,[45],17 µM
same,GI50,[46],6.52 µM
same,TGI,[46],27.9 µM
same,GI50,[47],1.89 µM
same,TGI,[47],12.2 µM
same,GI50,[48],4.51 µM
same,TGI,[48],22 µM
same,GI50,[49],1.18 µM
same,TGI,[49],16.3 µM
same,GI50,[50],3.07 µM
same,TGI,[50],24.4 µM
same,GI50,[51],0.801 µM
same,TGI,[51],11 µM
same,GI50,[52],5.66 µM
same,TGI,[52],24.4 µM
same,GI50,[53],5.91 µM
same,TGI,[53],48.3 µM
same,GI50,[54],6.49 µM
same,TGI,[54],21.6 µM
same,GI50,[55],12.3 µM
same,TGI,[55],35.6 µM
same,GI50,[56],3.16 µM
same,TGI,[56],43.5 µM
same,GI50,[57],5.13 µM
same,TGI,[57],34 µM
same,GI50,[58],1.77 µM
same,TGI,[58],25.9 µM
